Patent US20220202905A1, “COMPOSITION FOR PREVENTING OR TREATING NEUROTROPHIC KERATITIS WHICH CONTAINS PACAP PEPTIDE OR STABILIZED PACAP PEPTIDE” (SENJU PHARMACEUTICAL CO., LTD., priority 2019, published 2022)
Numbered stars: 1 amine (or outer) side, 2 acyl side, 3 side chain; on linkers, the order of the positions; unused ones are H or OH. Square brackets hold non-standard residues; d marks the D form. Peptide text beside a SMILES is read from it. Ala(1H-tetrazol-5-yl) = N[C@@H](Cc1nnn[nH]1)C(=O)O; X1 = O=C([C@H](CCc1nnn[nH]1)N[*:1])[*:2]; Nle = CCCC[C@H](N)C(=O)O

What was measured:
[1] = target: T1, PAC1R (Homo sapiens, UniProt P41586); experiment: cAMP assay in PAC1R high-expressing CHO-K1 cell line; type: cell-based; conditions: cAMP inducing effect, CHO-K1 PAC1R high-expressing cells
T1 construct: host or cells: CHO-K1
T1 sequence (P41586 21-468): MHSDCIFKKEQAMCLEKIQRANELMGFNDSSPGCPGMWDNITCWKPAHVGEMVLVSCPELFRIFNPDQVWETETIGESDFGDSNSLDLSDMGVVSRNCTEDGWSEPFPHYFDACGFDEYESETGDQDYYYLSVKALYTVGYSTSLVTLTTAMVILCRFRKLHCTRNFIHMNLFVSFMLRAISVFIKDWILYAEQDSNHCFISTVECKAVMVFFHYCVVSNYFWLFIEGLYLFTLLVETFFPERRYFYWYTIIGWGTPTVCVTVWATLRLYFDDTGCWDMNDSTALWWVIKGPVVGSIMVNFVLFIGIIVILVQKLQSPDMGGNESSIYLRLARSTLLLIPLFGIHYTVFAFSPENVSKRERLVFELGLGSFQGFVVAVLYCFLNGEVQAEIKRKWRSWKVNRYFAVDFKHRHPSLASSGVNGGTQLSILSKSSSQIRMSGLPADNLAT
Experimental: (§1) The cells were cultured for 18 to 24 hours at 37° C. in a 5% C02 incubator, adhering the cells to the plate. […] A 5-fold dilution series was then prepared with the same Cell assay buffer and used in an assay. The cAMP assay was carried out using a Hit Hunter cAMP Assay for Biologics kit (product of DiscoveRx, Cat. No. 90-0075LM25), according to the included kit instructions. […] Next, the culture medium was removed from the CHO-K1 cell culture plate, washing was performed with PBS, and the peptide-cAMP antibody liquid mixtures were added to the cells and incubated for 30 minutes under a 5% CO2 atmosphere at 37° C. A working detection solution was then added and the culture plate was shielded from light with aluminum foil and incubated at 25° C. for 1 hour. After incubation, Solution A was added and the culture plate was shielded from light with aluminum foil and then incubated at 25° C. for 3 hours. […] The obtained value for the Relative Luminescence Unit (RLU) was analyzed with GraphPad Prism Ver 6.05 (product of Graph Pad) and the EC50 value was calculated for each peptide. […] FIG. 2 and Table 11. […] A 5-fold dilution series was then prepared with the same Cell assay buffer and used in an assay. […] A 5-fold dilution series was then prepared with the same Cell assay buffer and used in an assay.

[2] = target: T2, VPAC1R (Homo sapiens, UniProt P32241); experiment: cAMP assay in VPAC1R high-expressing CHO-K1 cell line; type: cell-based; conditions: Table 12; cAMP inducing effect, CHO-K1 VPAC1R high-expressing cells
T2 construct: host or cells: CHO-K1
T2 sequence (P32241 31-457): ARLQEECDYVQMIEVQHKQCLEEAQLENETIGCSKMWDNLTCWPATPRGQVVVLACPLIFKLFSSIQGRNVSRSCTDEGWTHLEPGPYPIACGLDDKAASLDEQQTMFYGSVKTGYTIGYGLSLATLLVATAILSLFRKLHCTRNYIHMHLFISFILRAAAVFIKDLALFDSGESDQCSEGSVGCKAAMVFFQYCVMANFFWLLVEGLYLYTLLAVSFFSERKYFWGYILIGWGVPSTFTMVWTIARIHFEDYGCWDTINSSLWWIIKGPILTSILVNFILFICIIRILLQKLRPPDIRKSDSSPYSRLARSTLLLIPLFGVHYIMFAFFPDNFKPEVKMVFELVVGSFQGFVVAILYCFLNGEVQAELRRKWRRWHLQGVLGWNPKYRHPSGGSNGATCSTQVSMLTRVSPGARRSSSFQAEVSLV
Experimental: as §1

[3] = Peptide stability test, Tris buffer (pH 7.0), 60° C. storage, HPLC remaining rate; type: physicochemical; conditions: Table 7; 100 μM in Tris buffer pH 7.0
Outline: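 Peptides at 100 μM in Tris buffer (pH 7.0) stored 1 or 2 weeks at 60° C.; unstored sample kept at −30° C. as initial reference. Remaining peptide quantified by reversed-phase HPLC at 220 nm (formic acid/acetonitrile gradient, 40° C. column), as water-corrected remaining rate.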

| EC50 ([1]; Table 11) | EC50 [2] | remaining rate after correction for water, 60° C., 1 week preservation [3] | remaining rate after correction for water, 60° C., 2 weeks preservation [3] | EC50 ([1]; Table 12) | SMILES |
| --- | --- | --- | --- | --- | --- |
| 0.079 nM | – | – | – | – | CCCC[C@H](NC(=O)[C@H](CCC(N)=O)NC(=O)[C@H](CCCCN)NC(=O)[C@H](CCCNC(=N)N)NC(=O)[C@H](Cc1ccc(O)cc1)NC(=O)[C@H](CCCNC(=N)N)NC(=O)[C@H](CO)NC(=O)[C@H](Cc1ccc(O)cc1)NC(=O)[C@H](CO)NC(=O)[C@H](Cc1nnn[nH]1)NC(=O)[C@@H](NC(=O)[C@H](Cc1ccccc1)NC(=O)[C@@H](NC(=O)CNC(=O)[C@H](Cc1nnn[nH]1)NC(=O)[C@H](CO)NC(=O)[C@@H](N)Cc1c[nH]cn1)[C@@H](C)CC)[C@@H](C)O)C(=O)N[C@@H](C)C(=O)N[C@H](C(=O)N[C@@H](CCCCN)C(=O)N[C@@H](CCCCN)C(=O)N[C@@H](Cc1ccc(O)cc1)C(=O)N[C@@H](CC(C)C)C(=O)N[C@@H](C)C(=O)N[C@@H](C)C(=O)N[C@H](C(=O)N[C@@H](CC(C)C)C(N)=O)C(C)C)C(C)C [Peptide 6] (H-HS[Ala(1H-tetrazol-5-yl)]GIFT[Ala(1H-tetrazol-5-yl)]SYSRYRKQ[Nle]AVKKYLAAVL-NH2) |
| – | 0.072 nM | 97.4% | 95.4% | – | CC[C@H](C)[C@H](NC(=O)CNC(=O)[C@H](Cc1nnn[nH]1)NC(=O)[C@H](CO)NC(=O)[C@H](Cc1c[nH]cn1)NC(C)=O)C(=O)N[C@@H](Cc1ccccc1)C(=O)N[C@H](C(=O)N[C@@H](Cc1nnn[nH]1)C(=O)N[C@@H](CO)C(=O)N[C@@H](Cc1ccc(O)cc1)C(=O)N[C@@H](CO)C(=O)N[C@@H](CCCNC(=N)N)C(=O)N[C@@H](Cc1ccc(O)cc1)C(=O)N[C@@H](CCCNC(=N)N)C(=O)N[C@@H](CCCCN)C(=O)N[C@@H](CCc1nnn[nH]1)C(=O)N[C@@H](CC(C)C)C(=O)N[C@@H](C)C(=O)N[C@H](C(=O)N[C@@H](CCCCN)C(=O)N[C@@H](CCCCN)C(=O)N[C@@H](Cc1ccc(O)cc1)C(=O)N[C@@H](CC(C)C)C(=O)N[C@@H](C)C(=O)N[C@@H](C)C(=O)N[C@H](C(=O)N[C@@H](CC(C)C)C(N)=O)C(C)C)C(C)C)[C@@H](C)O [Peptide 13] (Ac-HS[Ala(1H-tetrazol-5-yl)]GIFT[Ala(1H-tetrazol-5-yl)]SYSRYRK[X1]LAVKKYLAAVL-NH2) |
| – | – | 97.3% | 94.9% | 0.061 nM | CC[C@H](C)[C@H](NC(=O)CNC(=O)[C@H](Cc1nnn[nH]1)NC(=O)[C@H](CO)NC(=O)[C@H](Cc1c[nH]cn1)NC(C)=O)C(=O)N[C@@H](Cc1ccccc1)C(=O)N[C@H](C(=O)N[C@@H](Cc1nnn[nH]1)C(=O)N[C@@H](C)C(=O)N[C@@H](Cc1ccc(O)cc1)C(=O)N[C@@H](CO)C(=O)N[C@@H](CCCNC(=N)N)C(=O)N[C@@H](Cc1ccc(O)cc1)C(=O)N[C@@H](CCCNC(=N)N)C(=O)N[C@@H](CCCCN)C(=O)N[C@@H](CCC(N)=O)C(=O)N[C@@H](CC(C)C)C(=O)N[C@@H](C)C(=O)N[C@H](C(=O)N[C@@H](CCCCN)C(=O)N[C@@H](CCCCN)C(=O)N[C@@H](Cc1ccc(O)cc1)C(=O)N[C@@H](CC(C)C)C(=O)N[C@@H](C)C(=O)N[C@@H](C)C(=O)N[C@H](C(=O)N[C@@H](CC(C)C)C(N)=O)C(C)C)C(C)C)[C@@H](C)O [Peptide 15] (Ac-HS[Ala(1H-tetrazol-5-yl)]GIFT[Ala(1H-tetrazol-5-yl)]AYSRYRKQLAVKKYLAAVL-NH2) |
